Patent US20230203023A1, “SALT AND CRYSTAL FORMS OF GLP-1R AGONISTS AND USES THEREOF” (QILU REGOR THERAPEUTICS INC., priority 2020, published 2023)
Where a name gives a salt, the structure may show the parent alone.

How the values were obtained:
Format in all cases: physicochemical
[1] = Solution stability evaluation in SGF (pH 1.8) and pH 8.0 buffer at RT; conditions: for Purity (% area) / pH / Purity vs. Initial (%): 0.01 mg/mL
Protocol: Weigh 100 mg of sodium chloride and 50 mg of Triton X-100 into a 50-mL volumetric flask. Add appropriate volume of purified water and sonicate until all solids are completely dissolved. Add about 68 μL of 12 M HCl and sufficient purified water closely to the target volume and adjust to pH 1.8. Dilute to volume with purified water, mix well and check the pH with a pH meter.
Add sufficient purified water closely to the target volume and adjust to pH 8.0. Dilute to volume with purified water, mix well and check the pH with a pH meter. […]
Solution stability was evaluated for 1:1 Compound II Citrate Salt (Form A) and 1:1 Compound II Tris Salt (Form B) in SGF (pH 1.8) and pH 8.0 buffer at RT. Clear solutions were prepared at two concentrations (0.01 mg/mL, 0.05 mg/mL) and then placed at RT for 6 hours, 1/5 days or 6 hours, 1/3/7 days. […] The HPLC purity and pH value were tested and the results were summarized from Table 7-3-1 to Table 7-3-4.

[2] = VH-XRPD, dehydration of the hydrate
Protocol: VH-XRPD and single crystal structure determination were performed for 1:1 Compound I Tris Salt (Form A) and it was identified as a monohydrate, which would dehydrate at the ≤30%RH condition.
VH-XRPD was performed for a 1:1 Compound II tris salt (Form B) sample for further identification. […] Combining the characterization results, it is believe that 1:1 Compound II tris salt (Form B) is a hydrate, which would dehydrate below ≤10% RH.

Polymorph screening = conditions: solution crystallization and solid transition methods
Protocol: Polymorph screening experiments on 1:1 Compound I Tris Salt (Form A) were performed under vairous conditions using different solution crystallization or solid transition methods, including anti-solvent addition, reverse anti-solvent addition, slow evaporation, slow cooling, slurry at RT, slurry at 50° C., slurry cycling 5-50° C., vapor-solid diffusion, vapor-solution diffusion, polymer induced crystallization, and grinding.

[3] = pH 8.0 (50 mM phosphate), Initial
[4] = pH 8.0 (50 mM phosphate), RT, 6 hours
[5] = pH 8.0 (50 mM phosphate), RT, 1 day
[6] = pH 8.0 (50 mM phosphate), RT, 5 days

For `O=C(O)c1ccc2nc(CN3CC=C(c4cccc(OCc5ccc(Cl)cc5F)c4)CC3)n(C[C@@H]3CCO3)c2c1` [Tris salt Form A, (S)-2-((4-(3-((4-chloro-2-fluorobenzyl)-oxy)phenyl)-3,6-dihydropyridin-1(2H)-yl)methyl)-1-(oxetan-2-ylmethyl)-1H-benzo[d]-imidazole-6-carboxylic acid], the “Purity (% area)” value ([1]; pH 1.8 (SGF), Initial) was 100.00 % area, the pH ([1]; pH 1.8 (SGF), Initial) was 1.8 and the “Purity (% area)” value ([1]; pH 1.8 (SGF), RT, 6 hours) was 100.00 % area. For the same compound, the “Purity vs. Initial (%)” value ([1]; pH 1.8 (SGF), RT, 6 hours) was 100.0%, the pH ([1]; pH 1.8 (SGF), RT, 6 hours) was 1.8 and the “Purity (% area)” value ([1]; pH 1.8 (SGF), RT, 1 day) was 100.00 % area. For the same compound, the “Purity vs. Initial (%)” value ([1]; pH 1.8 (SGF), RT, 1 day) was 100.0%, the pH ([1]; pH 1.8 (SGF), RT, 1 day) was 1.8 and the “Purity (% area)” value ([1]; pH 1.8 (SGF), RT, 5 days) was 97.40 % area. The “Purity vs. Initial (%)” value ([1]; pH 1.8 (SGF), RT, 5 days) was 97.4%, the pH ([1]; pH 1.8 (SGF), RT, 5 days) was 1.8 and the “Purity (% area)” value [1, 3] was 97.70 % area. The pH [1, 3] was 8.1, the “Purity (% area)” value [1, 4] was 96.92 % area and the “Purity vs. Initial (%)” value [1, 4] was 99.2%. The pH [1, 4] was 8.0, the “Purity (% area)” value [1, 5] was 96.07 % area and the “Purity vs. Initial (%)” value [1, 5] was 98.3%. The pH [1, 5] was 8.0, the “Purity (% area)” value [1, 6] was 94.34 % area and the “Purity vs. Initial (%)” value [1, 6] was 96.6%. The pH [1, 6] was 8.0, the “Stability of the pH 1.8 solution, in words” value ([1]; SGF pH 1.8, RT, after 1 day) was “No significant degradation” and the “Stability of the pH 8.0 solution, in words” value ([1]; pH 8.0 buffer, RT) was “decreased slightly”. The “Relative humidity at which the hydrate would dehydrate” value [2] was at most 30 % RH and the “Form change in polymorph screening” value (Polymorph screening) was “did not change under most of the test conditions”.
